Experimental data reported in PubChem BioAssay (NCI).
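96-well plates; 48 h exposure; 5 concentrations. Endpoints by linear interpolation between flanking doses. Not reached: highest tested concentration assigned. GI50: concentration for 50% inhibition of growth. TGI: concentration producing complete growth inhibition.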

Key:
Assay in all cases: NCI anticancer screen, dose series, 48 h
[1] = system: A549 NSCLC
[2] = system: UACC-62 melanoma
[3] = system: K-562 leukemia
[4] = system: NCI-H460 lung
[5] = system: SF-268 CNS
[6] = system: MDA-MB-435
[7] = system: A498 renal
[8] = system: T-47D breast
[9] = system: RPMI-8226 leukemia
[10] = system: MALME-3M melanoma

`N/C(=N/S(=O)(=O)c1cc(C(=O)Nc2ccc(F)cc2)c(Cl)cc1SCc1ccccc1)Nc1ccccc1O` gave a GI50 [1] of 2.36 µM, a TGI [1] of 4.71 µM and a GI50 [2] of 1.84 µM. It also gave a TGI [2] of 3.43 µM, a GI50 [3] of 1.33 µM and a TGI [3] of 3.64 µM. The GI50 [4] was 2.93 µM, the TGI [4] was 8.29 µM and the GI50 [5] was 2.12 µM. It also gave a TGI [5] of 5.69 µM, a GI50 [6] of 1.76 µM and a TGI [6] of 3.19 µM. For the same molecule, the GI50 [7] was 16.3 µM, the TGI [7] was 30.5 µM and the GI50 [8] was 7.3 µM. The TGI [8] was 28.6 µM, the GI50 [9] was 2.61 µM and the TGI [9] was 6.1 µM.

In the case of `CCOP(=O)(OCC)C(NC(c1ccccc1)c1ccccc1)c1ccc(C(C)C)cc1` (stereo unspecified), the GI50 [1] is reported as 4.84 µM, the TGI [1] is reported as 23.2 µM and the GI50 [2] is reported as 10.4 µM. The TGI [2] was 22.9 µM, the GI50 [3] was 3.48 µM and the TGI [3] was 14.8 µM. The GI50 [4] was 5.91 µM, the TGI [4] was greater than 100 µM and the GI50 [5] was 7.93 µM. The TGI [5] was 69.5 µM, the GI50 [6] was 3.71 µM and the TGI [6] was 11.6 µM. The GI50 [8] was 6.65 µM, the TGI [8] was 41.3 µM and the GI50 [9] was 2.65 µM. It also gave a TGI [9] of 9.99 µM.

`CCOC(=O)c1cc2c(n1Cc1cc(OC)cc(OC)c1)-c1oncc1CC2` showed a GI50 [1] of 0.27 µM, a TGI [1] greater than 100 µM and a GI50 [2] of 0.403 µM. The TGI [2] was greater than 100 µM, the GI50 [3] was 0.0518 µM and the TGI [3] was greater than 100 µM. The GI50 [4] was 0.139 µM, the TGI [4] was greater than 37.8 µM and the GI50 [5] was 3.18 µM. The TGI [5] was greater than 100 µM, the GI50 [7] was 0.0532 µM and the TGI [7] was 0.779 µM. It also gave a GI50 [8] of 31.1 µM, a TGI [8] greater than 100 µM and a GI50 [9] of 0.354 µM. The TGI [9] was greater than 35.4 µM.

In the case of `CN(C)CCNC(=O)c1cccc2c1nc(-c1ccncc1)c1ccccc12`, the TGI [1] is reported as 12.6 µM, the TGI [2] is reported as 6.44 µM and the TGI [3] is reported as greater than 100 µM. For the same molecule, the TGI [4] was 3.05 µM, the TGI [5] was 19.7 µM and the TGI [7] was 7.67 µM.

`CSc1cc(C(C)(C)C)ccc1C(O)c1ccc(C(C)(C)C)cc1SC` gave a TGI [1] of 24.4 µM, a TGI [2] of 33.9 µM and a TGI [3] of 30.5 µM. The TGI [4] was 31.4 µM, the TGI [10] was 29.9 µM and the TGI [5] was 27.1 µM. For the same molecule, the TGI [7] was 26.7 µM.

`CC(=O)[CH-]C(=O)c1ccccc1.CC(=O)[CH-]C(=O)c1ccccc1.CC(=O)[CH-]C(=O)c1ccccc1.[Br-].[Zr+4]` was tested, and the GI50 [1] was greater than 100 µM, the TGI [1] was greater than 100 µM and the GI50 [2] was greater than 100 µM. For the same molecule, the TGI [2] was greater than 100 µM, the GI50 [3] was greater than 100 µM and the TGI [3] was greater than 100 µM. It also gave a GI50 [4] of 78.3 µM, a TGI [4] greater than 100 µM and a GI50 [10] of 20.2 µM. For the same molecule, the TGI [10] was 55.3 µM, the GI50 [5] was 56.7 µM and the TGI [5] was greater than 100 µM. It also gave a GI50 [7] of 24.9 µM, a TGI [7] greater than 100 µM and a GI50 [9] of 72.5 µM. For the same molecule, the TGI [9] was greater than 100 µM.

`O=C(Nc1ccc(Cl)cc1)N1CCN(c2ccc3nncn3n2)CC1` was tested, and the GI50 [2] was 21.7 µM, the TGI [2] was greater than 100 µM and the GI50 [3] was 22 µM. It also gave a TGI [3] greater than 100 µM, a GI50 [4] of 50.4 µM and a TGI [4] greater than 100 µM. The GI50 [10] was 89.1 µM, the TGI [10] was greater than 100 µM and the GI50 [5] was greater than 100 µM. The TGI [5] was greater than 100 µM, the GI50 [6] was 64.3 µM and the TGI [6] was greater than 100 µM. It also gave a GI50 [7] of 11.2 µM, a TGI [7] of 96.6 µM and a GI50 [8] of 29.4 µM. For the same molecule, the TGI [8] was greater than 100 µM, the GI50 [9] was 29.7 µM and the TGI [9] was greater than 100 µM.

For `CC1(C)CN(CCNc2nccc(-c3c(-c4cccc(O)c4)nc4sccn34)n2)S(=O)(=O)N1`, the GI50 [1] was 14.2 µM, the TGI [1] was greater than 33.2 µM and the GI50 [2] was 0.116 µM. The TGI [2] was 3.3 µM, the GI50 [3] was 6.46 µM and the TGI [3] was greater than 33.2 µM. It also gave a GI50 [4] of 7.07 µM, a TGI [4] greater than 33.2 µM and a GI50 [5] of 21.8 µM. It also gave a TGI [5] greater than 33.2 µM, a GI50 [6] of 0.641 µM and a TGI [6] greater than 33.2 µM. The GI50 [7] was 1.55 µM, the TGI [7] was 19.7 µM and the GI50 [8] was 11.2 µM. For the same molecule, the TGI [8] was greater than 33.2 µM, the GI50 [9] was 16.6 µM and the TGI [9] was greater than 33.2 µM.

With `O=C1c2ccccc2C(=O)c2sc(Nc3ccc([N+](=O)[O-])cc3)nc21` the TGI [1] was 41.7 µM, the TGI [2] was 8.31 µM and the TGI [3] was 5.98 µM. For the same molecule, the TGI [4] was 34.4 µM, the TGI [10] was 12.6 µM and the TGI [5] was 12.2 µM. For the same molecule, the TGI [7] was 34.8 µM, the TGI [8] was 6.81 µM and the TGI [9] was 9.1 µM.

Molecule `N#CCC(=O)Nc1ccccc1O` has a TGI [1] greater than 100 µM, a TGI [2] greater than 100 µM and a TGI [3] greater than 100 µM. It also gave a TGI [4] greater than 100 µM, a TGI [10] greater than 100 µM and a TGI [5] greater than 100 µM. It also gave a TGI [7] greater than 100 µM and a TGI [9] greater than 100 µM.

`CCN(CC)CCCC(C)Nc1ccnc(/C=C/c2ccc(Cl)cc2)c1` (stereo unspecified) showed a TGI [1] of 4.79 µM, a TGI [2] of 3.69 µM and a TGI [4] of 7.49 µM. It also gave a TGI [10] of 3.08 µM, a TGI [5] of 8.6 µM and a TGI [6] of 2.95 µM. For the same molecule, the GI50 [7] was 1.62 µM, the TGI [7] was 5.2 µM and the TGI [8] was 3.59 µM. It also gave a TGI [9] of 5.74 µM.

In the case of `COc1cc(NCCC2CCCCN2)c2ncccc2c1OC` (stereo unspecified), the GI50 [1] is reported as 19.4 µM, the TGI [1] is reported as 41.9 µM and the GI50 [2] is reported as 2.24 µM. It also gave a TGI [2] of 6.19 µM, a GI50 [4] of 10.5 µM and a TGI [4] of 24.8 µM. It also gave a GI50 [10] of 14.2 µM, a TGI [10] of 30 µM and a GI50 [5] of 14.2 µM. The TGI [5] was 41.8 µM, the GI50 [7] was 22.6 µM and the TGI [7] was 41.8 µM. It also gave a GI50 [8] of 2.91 µM, a TGI [8] of 14.4 µM and a GI50 [9] of 10.1 µM. It also gave a TGI [9] of 50.8 µM.

`CC1(C)CC[C@]2(CO)CC[C@]3(C)C(=CC[C@@H]4[C@@]5(C)CCNCC(C)(C)[C@@H]5CC[C@]43C)[C@@H]2C1` gave a GI50 [1] of 8.23 µM, a TGI [1] of 22.7 µM and a GI50 [2] of 2.77 µM. The TGI [2] was 8.14 µM, the GI50 [3] was 2.6 µM and the TGI [3] was 16.5 µM. It also gave a GI50 [4] of 2.08 µM, a TGI [4] of 4.82 µM and a GI50 [10] of 1.69 µM. For the same molecule, the TGI [10] was 3.71 µM, the GI50 [5] was 8.98 µM and the TGI [5] was 25.4 µM. The GI50 [6] was 3.01 µM, the TGI [6] was 8.9 µM and the GI50 [7] was 12.5 µM. The TGI [7] was 25.1 µM, the GI50 [8] was 2.42 µM and the TGI [8] was 11.2 µM.

Work on `CC(=O)O[C@H]1CC[C@]2(C)C3C(=O)C[C@]4(C)[C@@H](C(C)CCC(=O)O)CC[C@@]4(C)[C@@H]3CC[C@H]2C1(C)C` (stereo partly specified) yielded a GI50 [1] of 15.6 µM, a TGI [1] greater than 50 µM and a GI50 [2] of 21.7 µM. It also gave a TGI [2] greater than 50 µM, a GI50 [3] of 14.9 µM and a TGI [3] greater than 50 µM. It also gave a GI50 [4] of 14.3 µM, a TGI [4] greater than 50 µM and a GI50 [5] of 21.1 µM. It also gave a TGI [5] greater than 50 µM, a GI50 [6] of 13.5 µM and a TGI [6] of 33.8 µM. The GI50 [7] was 22.2 µM, the TGI [7] was greater than 50 µM and the GI50 [9] was 9.79 µM. The TGI [9] was greater than 50 µM.

`N#CC(C#N)=C1CCC2C(=C(C#N)C#N)CCC12` (stereo unspecified) was tested, and the TGI [1] was greater than 100 µM, the TGI [2] was greater than 100 µM and the TGI [3] was greater than 100 µM. The TGI [4] was greater than 100 µM, the TGI [10] was greater than 100 µM and the TGI [5] was greater than 100 µM. For the same molecule, the TGI [7] was greater than 100 µM and the TGI [9] was greater than 100 µM.

Molecule `CCOC(=O)c1cc(C(=O)c2cc(OC)c(OC)c(OC)c2)n2ccc(-c3cc[n+](CC(=O)c4cc(OC)c(OC)c(OC)c4)cc3)cc12` has a GI50 [1] of 3.29 µM, a TGI [1] of 6.29 µM and a GI50 [2] of 2.32 µM. The TGI [2] was 5.72 µM, the GI50 [4] was 2 µM and the TGI [4] was 3.78 µM. It also gave a GI50 [10] of 1.73 µM, a TGI [10] of 3.68 µM and a GI50 [6] of 1.9 µM. For the same molecule, the TGI [6] was 3.85 µM, the GI50 [7] was 1.96 µM and the TGI [7] was 3.85 µM. The GI50 [8] was 1.94 µM and the TGI [8] was 4.85 µM.

With `FC(F)(F)c1nc(Br)[nH]c1C(F)(F)F` the TGI [1] was greater than 100 µM, the TGI [2] was greater than 100 µM and the TGI [3] was greater than 100 µM. For the same molecule, the TGI [4] was greater than 100 µM, the TGI [10] was greater than 100 µM and the TGI [5] was greater than 100 µM. For the same molecule, the TGI [9] was greater than 100 µM.
